According to PubChem BioAssay (NCI):
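Five compound concentrations were applied to cells in 96-well plates for 48 hours; endpoints were derived by simple linear interpolation of the resulting dose-response curve. GI50 = concentration required for 50% inhibition of growth. TGI: concentration producing complete growth inhibition.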

Key:
Assay in all cases: inhibition of tumour cell growth, NCI panel, 48 h
A549 NSCLC = tested on: A549 NSCLC
SN12C renal = tested on: SN12C renal
MDA-MB-435 = tested on: MDA-MB-435
HOP-92 NSCLC = tested on: HOP-92 NSCLC
UO-31 renal = tested on: UO-31 renal
NCI-H522 lung = tested on: NCI-H522 lung
NCI-H23 lung = tested on: NCI-H23 lung
HT29 colon = tested on: HT29 colon
HCT-116 colon = tested on: HCT-116 colon
IGROV1 ovarian = tested on: IGROV1 ovarian

SMILES | TGI (A549 NSCLC) | TGI (SN12C renal) | TGI (MDA-MB-435) | TGI (HOP-92 NSCLC) | TGI (UO-31 renal) | TGI (NCI-H522 lung) | TGI (NCI-H23 lung) | TGI (HT29 colon) | TGI (HCT-116 colon) | TGI (IGROV1 ovarian) | GI50 (A549 NSCLC) | GI50 (SN12C renal) | GI50 (MDA-MB-435) | GI50 (HOP-92 NSCLC) | GI50 (UO-31 renal) | GI50 (NCI-H522 lung) | GI50 (NCI-H23 lung) | GI50 (HT29 colon) | GI50 (HCT-116 colon) | GI50 (IGROV1 ovarian)
NS(=O)(=O)c1c(O)c2ccccc2oc1=O | > 100 µM | > 100 µM | > 100 µM | > 100 µM | > 100 µM | > 100 µM | > 100 µM | > 100 µM | > 100 µM | > 100 µM |  |  |  |  |  |  |  |  |  | 
CC1C(OS(=O)(=O)c2ccc3[nH]c(=S)sc3c2)CC2C3(C)CCC2(C(C)C(=O)O)C(O)C13 (stereo not given) | > 100 µM | > 100 µM | 47.8 µM | > 100 µM | 39.8 µM | 17.2 µM | 38.3 µM | 35.4 µM | 27.3 µM | 35.8 µM |  |  |  |  |  |  |  |  |  | 
CC[C@@H]1CC[C@@H]2[C@H](CC[C@]3(C)[C@@H](O[N+](=O)[O-])CC[C@@H]23)[C@H]1C(C)=O | > 100 µM | > 100 µM | > 100 µM | 70.2 µM | > 100 µM | 80.9 µM | > 100 µM | 33.4 µM | > 100 µM | > 100 µM |  |  |  |  |  |  |  |  |  | 
COC(=O)c1c(C)cccc1C1CN=NC12Cc1cc(C)c(C)cc1C2=O (stereo not given) | > 100 µM | > 100 µM | > 100 µM | > 100 µM | > 100 µM | 54.6 µM | > 100 µM | > 100 µM | > 100 µM | > 100 µM |  |  |  |  |  |  |  |  |  | 
COc1cc(S(=O)(=O)Nc2nc(-c3ccc(N=Cc4ccccc4O)cc3)cs2)ccc1Cl | > 100 µM | 77.3 µM | > 100 µM | > 100 µM | > 100 µM | > 100 µM | > 100 µM | > 100 µM | > 100 µM | > 100 µM |  |  |  |  |  |  |  |  |  | 
C(=NC12CC3CC(CC(C3)C1)C2)C1CCCCC1 | > 100 µM | > 100 µM | > 100 µM | > 100 µM | > 100 µM | > 100 µM | > 100 µM | > 100 µM | > 100 µM | > 100 µM |  |  |  |  |  |  |  |  |  | 
CO/C(N)=C(\C#N)N=Cc1ccsc1 | > 100 µM | > 100 µM | > 100 µM | > 100 µM | > 100 µM | 79.6 µM | > 100 µM | > 100 µM | > 100 µM | > 100 µM |  |  |  |  |  |  |  |  |  | 
N/C(CCSCCSCC/C(N)=N\O)=N\O | > 100 µM | > 100 µM | > 100 µM | > 100 µM | > 100 µM | > 100 µM | > 100 µM | > 100 µM | > 100 µM | > 100 µM |  |  |  |  |  |  |  |  |  | 
CS(=O)(=O)CCC1CCC(=O)O1 (stereo not given) | > 100 µM | > 100 µM | > 100 µM | > 100 µM | > 100 µM | > 100 µM | > 100 µM | > 100 µM | > 100 µM | > 100 µM |  |  |  |  |  |  |  |  |  | 
CCCCCC(=O)OC[n+]1cccc(-c2c(COC(=O)NC(C)C)c(COC(=O)NC(C)C)c3n2CCC3)c1 | > 100 µM | > 100 µM | > 100 µM | 77.2 µM | > 100 µM | 25.2 µM | > 100 µM | > 100 µM | > 100 µM | > 100 µM |  |  |  |  |  |  |  |  |  | 
COC(=O)C(=O)C(C(=O)C(=O)Nc1cccc(OC)c1)c1nc2ccc(Cl)cc2[nH]c1=O (stereo not given) | > 100 µM | > 100 µM | > 100 µM | > 100 µM | > 100 µM | > 100 µM | > 100 µM | > 100 µM | > 100 µM | > 100 µM |  |  |  |  |  |  |  |  |  | 
Fc1ccc2c(c1)SC1=Nc3sc4cc(F)ccc4[n+]3CN12 | 58.3 µM | 51.2 µM | > 100 µM | 51.6 µM | 74.3 µM | 35.2 µM | 47.3 µM | > 100 µM | > 100 µM | 30.6 µM |  |  |  |  |  |  |  |  |  | 
c1ccc(C(NC2=NCCO2)C2CC2)cc1 (stereo not given) | > 100 µM | > 100 µM | > 100 µM | > 100 µM | > 100 µM | > 100 µM | > 100 µM | > 100 µM | > 100 µM | > 100 µM |  |  |  |  |  |  |  |  |  | 
S=c1[nH]nc(Cn2c3ccc(Br)cc3c3nc4ccccc4nc32)o1 | 59.3 µM | > 100 µM | > 31.6 µM | 47 µM | 40.8 µM | 69.6 µM | > 100 µM | > 100 µM | > 100 µM | > 90.2 µM |  |  |  |  |  |  |  |  |  | 
O=C(Nc1ccc(Cl)cc1Cl)C1C(=O)OC2(CCCCC2)OC1=O | 28.8 µM | 49.4 µM | 56 µM | 28.1 µM | 15.1 µM | 52.5 µM | 19.1 µM | 25 µM | 23.3 µM | 64.1 µM |  |  |  |  |  |  |  |  |  | 
O=[N+]([O-])c1ccc(N/N=C\c2cc(Br)ccc2O)nc1 | 29.8 µM | 12.9 µM | > 100 µM | 6.77 µM | 2.01 µM | 3.23 µM | 10.9 µM | > 100 µM | 2.44 µM | 3.44 µM | 2.84 µM | 0.807 µM | 1.39 µM | 1.62 µM | 0.376 µM | 0.485 µM | 1.23 µM | 4.27 µM | 0.451 µM | 1.05 µM
O=C(OC1OC2COC(=O)c3cc(O)c(O)c(O)c3-c3c(cc(O)c(O)c3O)C(=O)OC3C2OC(=O)[C@@]24CC(=O)[C@@](O)(OC25C(=O)O[C@H]2[C@@H](O)CO[C@@]25O)C2(O)Oc5c(O)c(O)cc(c5C24)C(=O)OC13)c1cc(O)c(O)c(O)c1 (stereo not given in full) | > 100 µM | > 100 µM | 33 µM | > 100 µM | > 100 µM | 88 µM | > 100 µM | > 100 µM | > 100 µM | > 100 µM |  |  |  |  |  |  |  |  |  | 
